The NIST ThermoML archive (doi:10.1016/j.jct.2013.05.003)
± gives the expanded uncertainty stated by the source.

Experiment: xn = mol fraction of the nth substance listed
Conditions: 101.3 kPa, Liquid, fixed-path interferometer

CCOCCCN [3-ethoxy-1-propanamine] + O
speed of sound [m/s]
Conditions | 283.15 K | 288.15 K | 293.15 K
x1 = 0.0001081 | 1448.8 ± 1.3 | 1466.3 ± 1.3 | 1483.4 ± 1.3
x1 = 0.0003191 | 1450 ± 1.3 | 1467.4 ± 1.3 | 1484.5 ± 1.3
x1 = 0.0006252 | 1451.8 ± 1.3 | 1469.1 ± 1.3 | 1486 ± 1.3
x1 = 0.000707 | 1452.2 ± 1.3 | – | –
x1 = 0.0009424 | 1453.7 ± 1.3 | 1470.9 ± 1.3 | 1486.9 ± 1.3
x1 = 0.001046 | 1454.2 ± 1.3 | – | –
x1 = 0.001284 | 1455.6 ± 1.3 | 1472.6 ± 1.3 | 1489.1 ± 1.3
x1 = 0.001947 | 1459.5 ± 1.3 | 1476.2 ± 1.3 | 1491.7 ± 1.3
x1 = 0.002912 | 1465.1 ± 1.3 | 1481.3 ± 1.3 | 1496.4 ± 1.3
x1 = 0.00392 | 1470.9 ± 1.3 | 1486.6 ± 1.3 | 1501.2 ± 1.3
x1 = 0.005098 | 1477.6 ± 1.3 | 1492.8 ± 1.3 | 1506.8 ± 1.2
x1 = 0.007456 | 1491 ± 1.3 | 1505 ± 1.2 | –
x1 = 0.00981 | 1504 ± 1.2 | 1516.7 ± 1.2 | 1528.6 ± 1.2
x1 = 0.0148 | 1530.2 ± 1.2 | 1540.6 ± 1.2 | 1550.3 ± 1.2
x1 = 0.01956 | 1554 ± 1.2 | 1562.9 ± 1.2 | 1569.7 ± 1.2
x1 = 0.02832 | 1594.2 ± 1.2 | 1599 ± 1.2 | 1602.1 ± 1.2
x1 = 0.03914 | 1636.5 ± 1.3 | 1636.7 ± 1.3 | 1635.3 ± 1.3
x1 = 0.05082 | 1672.1 ± 1.3 | 1668 ± 1.3 | 1662.5 ± 1.3
x1 = 0.06674 | 1704.8 ± 1.3 | 1695.7 ± 1.3 | 1685.7 ± 1.3
x1 = 0.09536 | 1724 ± 1.3 | 1709.3 ± 1.3 | 1695.7 ± 1.3
x1 = 0.1209 | 1715.9 ± 1.3 | 1700.4 ± 1.3 | 1684.2 ± 1.3
x1 = 0.1452 | 1699.3 ± 1.3 | 1682.6 ± 1.3 | 1666.7 ± 1.3
x1 = 0.1844 | 1669 ± 1.3 | 1651.6 ± 1.3 | 1634.3 ± 1.3
x1 = 0.2121 | 1645.8 ± 1.4 | 1627.7 ± 1.3 | –
x1 = 0.2438 | 1623.7 ± 1.4 | 1604.4 ± 1.3 | –
x1 = 0.2923 | 1593 ± 1.4 | 1575 ± 1.3 | –
x1 = 0.361 | 1556.4 ± 1.4 | 1535.7 ± 1.4 | –
x1 = 0.4369 | 1524.2 ± 1.4 | 1504.5 ± 1.4 | –
x1 = 0.4937 | 1501.5 ± 1.4 | 1481 ± 1.4 | –
x1 = 0.5513 | 1482.2 ± 1.4 | 1461.9 ± 1.4 | –
x1 = 0.6214 | 1462.5 ± 1.4 | 1441.5 ± 1.4 | –
x1 = 0.6775 | 1448.2 ± 1.5 | 1426.9 ± 1.5 | –
x1 = 0.6943 | 1444.5 ± 1.5 | 1423.4 ± 1.5 | –
x1 = 0.7458 | 1432.9 ± 1.5 | 1411.3 ± 1.5 | –
x1 = 0.7733 | 1427.7 ± 1.5 | – | –
x1 = 0.7947 | 1422.9 ± 1.5 | 1401.1 ± 1.5 | –
x1 = 0.8276 | 1416.8 ± 1.5 | 1395.1 ± 1.5 | –
x1 = 0.8488 | 1412.3 ± 1.5 | 1390.7 ± 1.5 | –
x1 = 0.8744 | 1408.1 ± 1.6 | – | –
x1 = 0.8993 | 1403 ± 1.6 | 1381.5 ± 1.6 | –
x1 = 0.9189 | 1399.9 ± 1.6 | 1378 ± 1.6 | –
x1 = 0.9349 | – | 1375 ± 1.6 | –
x1 = 0.9411 | 1395.9 ± 1.6 | – | –
x1 = 0.9436 | – | 1373.5 ± 1.6 | –
x1 = 0.9486 | 1394.8 ± 1.6 | – | –
x1 = 0.9551 | – | 1371.3 ± 1.6 | –
x1 = 0.9601 | 1392.6 ± 1.6 | 1370.4 ± 1.6 | –
x1 = 0.9746 | – | 1367.5 ± 1.6 | –
x1 = 0.9755 | – | 1367.8 ± 1.6 | –
x1 = 0.985 | 1391 ± 1.6 | 1366.2 ± 1.6 | –
x1 = 1 | 1386.4 ± 1.6 | 1364.2 ± 1.6 | –
